Where “and” joins values, the source holds several entries; their conditions need not be identical. Equal values may be shown once. Inconclusive results and toxic doses are left out. Cut-off read from the data, not from the text of the source: active = T/C of 150% or more; inactive = T/C below 125%.
Test system: L1210 leukemia ip in BDF1 mice, survival T/C
Experiment: NCI In Vivo Anticancer Drug Screen. Data for tumor model L1210 Leukemia (intraperitoneal) in B6D2F1 (BDF1) mice
Details: endpoint: mean survival time, higher = longer survival
Outline: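 Each compound was tested against a transplantable tumor grown in mice. The endpoint was survival, with treated animals benchmarked against vehicle controls as a simple ratio.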

[1] = dose: 100.0 mg/kg/injection, schedule: Q01DX009 (ip), vehicle: saline with Tween-80
[2] = dose: 200.0 mg/kg/injection, schedule: Q01DX009 (ip), vehicle: saline with Tween-80
[3] = dose: 100.0 mg/kg/injection, schedule: Q04DX002 (ip), vehicle: saline with Tween-80
[4] = dose: 200.0 mg/kg/injection, schedule: Q04DX002 (ip), vehicle: saline with Tween-80
[5] = dose: 25.0 mg/kg/injection, schedule: Q04DX002 (ip), vehicle: saline
[6] = dose: 50.0 mg/kg/injection, schedule: Q04DX002 (ip), vehicle: saline
[7] = dose: 100.0 mg/kg/injection, schedule: Q04DX002 (ip), vehicle: saline

Measured: T/C

O=C(NCC(S)c1ccc(Cl)cc1)C(F)(F)F (stereo unspecified)
inactive: dose: 200.0 mg/kg/injection, schedule: Q04DX003 (ip), vehicle: saline with Tween-80 88 % of control | dose: 400.0 mg/kg/injection, schedule: Q04DX003 (ip), vehicle: saline with Tween-80 86 % of control

CCCCC(CCCC)NC(C)COC(=O)c1ccc(N)cc1 (stereo unspecified)
inactive: dose: 75.0 mg/kg/injection, schedule: Q01DX001 (ip), vehicle: carboxymethylcellulose (CMC) 104 % of control | dose: 150.0 mg/kg/injection, schedule: Q01DX001 (ip), vehicle: carboxymethylcellulose (CMC) 100 % of control | dose: 300.0 mg/kg/injection, schedule: Q01DX001 (ip), vehicle: carboxymethylcellulose (CMC) 101 % of control

CCOC(=O)c1cnc(SC)nc1Oc1ccccc1Cl
inactive: dose: 100.0 mg/kg/injection, schedule: Q01DX001 (ip), vehicle: saline with Tween-80 96 % of control | [1] 98 % of control | dose: 200.0 mg/kg/injection, schedule: Q01DX001 (ip), vehicle: saline with Tween-80 97 % of control | [2] 96 % of control | dose: 400.0 mg/kg/injection, schedule: Q01DX001 (ip), vehicle: saline with Tween-80 97 % of control | dose: 400.0 mg/kg/injection, schedule: Q01DX009 (ip), vehicle: saline with Tween-80 93 % of control

CC(C)C(N)(CCN1CCOCC1)c1cccc2ccccc12 (stereo unspecified)
inactive: [1] 99 % of control | [3] 88 % of control | [2] 101 % of control | [4] 92 % of control

COc1cc(CC2C(O)C3CCN2CC3)cc(OC)c1OC (stereo unspecified)
inactive: [5] 101 % of control | [6] 101 % of control | [7] 97 % of control and 104 % of control

Cc1ccc(C(=O)/C(Cl)=N/O)cc1
inactive: dose: 50.0 mg/kg/injection, schedule: Q01DX001 (ip), vehicle: other 96 % of control | dose: 100.0 mg/kg/injection, schedule: Q01DX001 (ip), vehicle: other 104 % of control

CC(=O)Oc1ccc(Cl)cc1/C=C\C=O
inactive: dose: 100.0 mg/kg/injection, schedule: Q01DX001 (ip), vehicle: saline 100 % of control | dose: 200.0 mg/kg/injection, schedule: Q01DX001 (ip), vehicle: saline 101 % of control

Nc1ccc(N=Nc2ccccc2)c(N)c1
inactive: dose: 100.0 mg/kg/injection, schedule: Q01DX009 (ip), vehicle: saline 95 % of control | dose: 200.0 mg/kg/injection, schedule: Q01DX009 (ip), vehicle: saline 101 % of control | dose: 400.0 mg/kg/injection, schedule: Q01DX009 (ip), vehicle: saline 95 % of control

CCCCCCC(=O)N1CCOCC1
inactive: [5] 108 % of control | [6] 101 % of control | [7] 93 % of control and 92 % of control

COc1ccc(OC)c(N(CCN2C(=O)c3ccccc3C2=O)C(=O)C2CCC(=O)C2C)c1 (stereo unspecified)
inactive: [3] 100 % of control | [4] 103 % of control | dose: 400.0 mg/kg/injection, schedule: Q04DX002 (ip), vehicle: saline with Tween-80 97 % of control
